Reference: EP1954678B1, “NOVEL NK1 AND NK2 ANTAGONISTS” (Abbott Products GmbH, priority 2005, dated 2007)

Assays:
[1] = biological target: T1, cloned human NK1 receptors (Homo sapiens, UniProt P25103); assay: Ca2+ measurements using FLIPR for NK1 activity in CHO cells; type: cell-based; details: substance P 10^-8 M as agonist; compound applied 7 min before; pA2 calculated from IC50
T1 construct: expressed in transfected cells
From the text: (§1) The NK receptor is coupled to Gq.
(§2) All steps were done under sterile conditions. […] The results are summarized in table 5: Table 5: pA2 data for NK1 and NK2: […]

[2] = biological target: T2, cloned human NK2 receptors (Homo sapiens, UniProt P21452); assay: Ca2+ measurements using FLIPR for NK2 activity in CHO cells; type: cell-based; details: NKA 10^-7 M as agonist; compound applied 7 min before; pA2 calculated from IC50
T2 construct: expressed in transfected cells
T2 sequence (P21452 1-398): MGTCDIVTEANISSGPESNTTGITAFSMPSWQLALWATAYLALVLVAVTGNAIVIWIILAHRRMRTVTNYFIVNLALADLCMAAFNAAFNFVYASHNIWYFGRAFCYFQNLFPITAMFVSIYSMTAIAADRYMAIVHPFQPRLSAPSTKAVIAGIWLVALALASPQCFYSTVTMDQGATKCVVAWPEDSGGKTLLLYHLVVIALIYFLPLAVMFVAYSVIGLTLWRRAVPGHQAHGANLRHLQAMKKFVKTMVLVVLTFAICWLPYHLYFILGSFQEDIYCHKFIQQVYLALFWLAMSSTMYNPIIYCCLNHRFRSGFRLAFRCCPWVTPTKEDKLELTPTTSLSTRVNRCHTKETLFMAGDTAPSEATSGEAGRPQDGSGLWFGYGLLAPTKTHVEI
From the text: as §1, §2

human NK2 receptors = biological target: T3, human NK2 receptors (Homo sapiens, UniProt P21452); assay: Binding of the test substances to NK2 receptors in vitro ([3H]-SR 48968 displacement, CHO cell membranes); details: [3H]-SR 48968 as ligand; membranes of CHO cells expressing the human NK2 receptor; 90 min incubation; Ki calculated from IC50; read-out: pKi (NK2) (converted)
T3 construct: expressed in transfected cells; host or cells: CHO cells (membrane preparation)
T3 sequence (P21452 1-398): T2 sequence (P21452 1-398)
Method: The affinity of the test substances to human NK2 receptors was measured in vitro. The ability of the test substances to displace the selective NK2 receptor antagonist SR 48968 (= saredutant) used as reference ligand from its corresponding bond was determined.
The receptor binding studies were carried out with radioactively marked [^3H]-SR 48968 (from Amersham) as ligand. For the binding test, different samples of a membrane preparation of CHO cells (= egg cells of the Chinese hamster, Chinese hamster oocytes), which express the human NK2 receptor (for preparation, see N.P. Gerard et al., Journal of Biological Chemistry 265/33 (1990) 20455-20462), were incubated for 90 minutes (= min.) with a solution of the marked ligand, with the incubation mixtures containing no test substance or additions of different concentrations of test substance. Then in each case the membrane-bound ligands in the samples were separated from free ligands by filtration. The fraction remaining in the filter was washed several times with buffer solution, before its radioactivity was measured using a liquid scintillation counter. That concentration which effects half-maximum displacement of the bound reference ligand was determined as IC50 of the respective test substance. The inhibition constant (Ki value) of the test substance was calculated from the respective IC50 value, and was stated as the negative logarithmised value thereof (pKi).
If several measurements were performed, the average thereof was listed each time. The pKi value is a measurement of the affinity of the test substances to human NK2 receptors.

human NK1 receptors = biological target: T4, human NK1 receptors (Homo sapiens, UniProt P25103); assay: Binding of the test substances to NK1 receptors in vitro ([3H]-Substance P displacement, CHO cell membranes); details: [3H]-Substance P as ligand; membranes of CHO cells expressing the human NK1 receptor; Ki calculated from IC50; read-out: pKi (NK1) (converted)
T4 construct: expressed in transfected cells; host or cells: CHO cells (membrane preparation)
Method: In The Netherlands, the affinity of the test substances to human NK1 receptors was measured in vitro.
The receptor binding studies were performed with [^3H]-Substance P as ligand. For the binding test, different samples of a membrane preparation of CHO cells (= egg cells of the Chinese hamster, Chinese hamster oocytes), which express the human NK1 receptor ("Accession Number" of the associated nucleic acid sequence = M74290; "Accession Number" of the associated protein sequence = P25103; cf. Takeda, Y.; Chou, K. B., Takeda, J.; Sachais, B.S. and Krause, J. E; Biochemical and Biophysical Research Communications, 179(3) (1991) 1232 - 1240), were incubated with a solution of the marked ligand, with the incubation mixtures containing no test substance or additions of different concentrations of test substance. Then, separation of bound and free ligands was performed in each of the samples with the aid of glass-fibre filtration. The fraction remaining in the filter was washed several times with buffer solution and then the radioactivity of the fraction remaining in the filter was measured using a beta scintillation counter.
For the compounds of Examples 1 to 14, that concentration which effects half maximum displacement of the bound ligand was determined as IC50 of the respective test substance. From this, the corresponding inhibition constant (Ki value) of the test substance was calculated, and was stated as the negative common logarithm of the Ki value (= pKi value). The pKi value is a measurement of the affinity of the test substances to human NK1 receptors.

T4 sequence (P25103 whole entry): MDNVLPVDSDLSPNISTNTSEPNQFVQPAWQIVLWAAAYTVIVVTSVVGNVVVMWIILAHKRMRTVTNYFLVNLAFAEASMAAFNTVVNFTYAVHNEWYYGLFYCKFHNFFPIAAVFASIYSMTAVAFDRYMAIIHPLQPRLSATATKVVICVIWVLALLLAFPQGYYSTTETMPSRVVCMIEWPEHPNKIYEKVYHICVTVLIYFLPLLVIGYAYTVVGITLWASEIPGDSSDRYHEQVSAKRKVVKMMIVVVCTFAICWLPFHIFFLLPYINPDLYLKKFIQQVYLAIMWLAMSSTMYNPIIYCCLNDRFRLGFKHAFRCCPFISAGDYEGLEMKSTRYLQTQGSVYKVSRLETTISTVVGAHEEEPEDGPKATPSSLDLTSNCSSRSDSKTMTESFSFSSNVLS
T1 sequence (P25103 whole entry): as above

Row | Structure (SMILES) | pA2 (NK1) [1] | pA2 (NK2) [2] | Ki (human NK2 receptors) [nM] | Ki (human NK1 receptors) [nM] | Kb [1] [nM] | Kb [2] [nM]
1 | CC(=O)OC[C@@H](OC(C)=O)[C@H](c1ccco1)N1CCN(CC[C@H](CN(C)C(=O)c2cc(C#N)cc3ccccc23)c2ccc(Cl)c(Cl)c2)CC1 [Compound 27, (2S,3R)-2-(acetyloxy)-3-{4-[(3S)-4-[3-cyano-1-naphthoyl)(methyl)amino]-3-(3,4-dichlorophenyl)butyl]piperazin-1-yl}-3-(2-furyl)propyl acetate] | 9,2 | 8,1 | – | – | – | –
2 | CN(C[C@@H](CCN1CCN([C@@H](c2ccoc2)[C@H](O)CO)CC1)c1ccc(Cl)c(Cl)c1)C(=O)c1cc(C#N)cc2ccccc12 [Compound 12, 3-cyano-N-[(2S)-2-(3,4-dichlorophenyl)-4-{4-[(1S,2S)-1-(3-furyl)-2,3-dihydroxypropyl]piperazin-1-yl}butyl]-N-methyl-1-naphthamide] | – | – | 100 | 10 | – | –
3 | CN(C[C@@H](CCN1CCN([C@@H](c2ccsc2)[C@H](O)[C@H](O)[C@H](O)CO)CC1)c1ccc(Cl)c(Cl)c1)C(=O)c1cc(C#N)cc2ccccc12 [Compound 4, 3-cyano-N-[(2S)-2-(3,4-dichlorophenyl)-4-{4-[(1S,2S,3S,4R)-2,3,4,5-tetrahydroxy-1-(3-thienyl)pentyl]piperazin-1-yl}butyl]-N-methyl-1-naphthamide] | – | – | 126 | 2.51 | – | –
4 | CN(C[C@@H](CCN1CCN(C(CO)c2ccco2)CC1)c1ccc(Cl)c(Cl)c1)C(=O)c1cc(C#N)cc2ccccc12 (stereo partly drawn) [Compound 28, 3-cyano-N-[(2S)-2-(3,4-dichlorophenyl)-4-{4-[1-(2-furyl)-2-hydroxyethyl]piperazin-1-yl}butyl]-N-methyl-1-naphthamide] | – | – | 50.1 | 12.6 | 2 | 25.1
5 | CN(C[C@@H](CCN1CCN([C@@H](c2ccc(Cl)s2)[C@H](O)CO)CC1)c1ccc(Cl)c(Cl)c1)C(=O)c1cc(C#N)cc2ccccc12 [Compound 18, N-[(2S)-4-{4-[(1R,2S)-1-(5-chloro-2-thienyl)-2,3-dihydroxypropyl]piperazin-1-yl}-2-(3,4-dichlorophenyl)butyl]-3-cyano-N-methyl-1-naphthamide] | – | – | 158 | 3.16 | 6.31 | 2.51
6 | CN(C[C@@H](CCN1CCN(C(CO)c2ccco2)CC1)c1ccc(Cl)c(Cl)c1)C(=O)c1cc(C#N)cc2ccccc12 (stereo partly drawn) [Compound 25, 3-cyano-N-[(2S)-2-(3,4-dichlorophenyl)-4-{4-[1-(2-furyl)-2-hydroxyethyl]piperazin-1-yl}butyl]-N-methyl-1-naphthamide] | – | – | 39.8 | 7.94 | 3.16 | 1
7 | CC(=O)OCC(O)C(Cc1ccccc1)N1CCN(CCC(CN(C)C(=O)c2cc(C#N)cc3ccccc23)c2ccc(Cl)c(Cl)c2)CC1 (stereo not drawn) [Compound 26] | 8,0 | 7,4 | – | – | – | –
8 | CN(C[C@@H](CCN1CCN([C@@H](c2cc3ccccc3o2)[C@H](O)CO)CC1)c1ccc(Cl)c(Cl)c1)C(=O)c1cc(C#N)cc2ccccc12 [Compound 17, N-[(2S)-4-{4-[(1R,2S)-1-(1-benzofuran-2-yl)-2,3-dihydroxypropyl]piperazin-1-yl}-2-(3,4-dichlorophenyl)butyl]-3-cyano-N-methyl-1-naphthamide] | – | – | 3160 | 31.6 | 20 | 20
9 | CN(CC(CCN1CCN(C(Cc2ccccc2)C(O)CO)CC1)c1ccc(Cl)c(Cl)c1)C(=O)c1cc(C#N)cc2ccccc12 (stereo not drawn) [Compound 24] | 8,1 | 7,8 | – | – | – | –
10 | CN(C[C@@H](CCN1CCN([C@@H](c2ccc3c(c2)OCO3)[C@H](O)CO)CC1)c1ccc(Cl)c(Cl)c1)C(=O)c1cc(C#N)cc2ccccc12 [Compound 21, N-[(2S)-4-{4-[(1S,2S)-1-(1,3-benzodioxol-5-yl)-2,3-dihydroxypropyl]piperazin-1-yl}-2-(3,4-dichlorophenyl)butyl]-3-cyano-N-methyl-1-naphthamide] | – | – | 398 | 2 | 0.794 | 0.316
11 | COc1ccc([C@@H]([C@H](O)CO)N2CCN(CC[C@H](CN(C)C(=O)c3cc(C#N)cc4ccccc34)c3ccc(Cl)c(Cl)c3)CC2)cc1 [Compound 16, 3-cyano-N-[(2)-2-(3,4-dichlorophenyl)-4-{4-[(1S,2S)-2,3-dihydroxy-1-(4-methoxyohenyl)propyl]piperazin-1-yl}butyl]-N-methyl-1-naphthamide] | 9,3 | 9,1 | – | – | – | –
12 | CN(C[C@@H](CCN1CCN(C(c2ccco2)C(O)CO)CC1)c1ccc(Cl)c(Cl)c1)C(=O)c1cc(C#N)cc2ccccc12 (stereo partly drawn) [Compound 14, 3-cyano-N-[(2S)-2-(3,4-dichlorophenyl)-4-{4-[1-(2-furyl)-2,3-dihydroxypropyl]piperazin-1-yl}butyl]-N-methyl-1-naphthamide] | – | – | 12.6 | 5.01 | 0.398 | 3.16
13 | CN(C[C@@H](CCN1CCN([C@@H](c2cc3ccccc3s2)[C@H](O)CO)CC1)c1ccc(Cl)c(Cl)c1)C(=O)c1cc(C#N)cc2ccccc12 [Compound 22, N-[(2S)-4-{4-[(1R,2S)-1-(1-benzothien-2-yl)-2,3-dihydroxypropyl]piperazin-1-yl}-2-(3,4-dichlorophenyl)butyl]-3-cyano-N-methyl-1-naphthamide] | – | – | 1000 | 3.98 | 7.94 | 3.16
14 | CN(C[C@@H](CCN1CCN([C@@H](c2ccco2)[C@H](O)[C@H](O)[C@H](O)CO)CC1)c1ccc(Cl)c(Cl)c1)C(=O)c1cc(C#N)cc2ccccc12 [Compound 3, 3-cyano-N-[(2S)-2-(3,4-dichlorophenyl)-4-{4-[(1R,2S,3S,4R)-1-(2-furyl)-2,3,4,5-tetrahydroxypentyl]piperazin-1-yl}butyl]-N-methyl-1-naphthamide] | – | – | 63.1 | 1.58 | – | –
